Data published in US8093393B2, “Cationic ceramides, and analogs thereof, and their use for preventing or treating cancer” (MUSC Foundation for Research Development, priority 2004, dated 2012).
≈ marks a conversion by molar mass, not a printed value. Where “and” joins values, the source holds several entries; their conditions need not be identical. Identical values can stand only once. Like-named read-outs stand apart in the source and are kept apart here.

Tests used:
UM-SCC-22A cells = assay: MTT cell survival assay and isobologram studies; format: cell-based, human
[1] = mice; cited from earlier work
[2] = tested on: MCF7 breast carcinoma cells; assay: Cell proliferation and viability, Trypan blue exclusion assay; format: cell-based; conditions: for IC50: 48 h treatment, read-out: IC50, inhibitory effect on MCF7 cell growth
Method: FIGS. 5A-5F show the dose dependent effects of CCPS analogs on survival of MCF7 breast carcinoma cells in comparison to the activity of D-e-C6-ceramide, which is commonly used as a model of ceramide action. Cell proliferation and cell viability were determined by Trypan blue exclusion assay. These assays were performed using duplicate samples in two or three independent experiments.
Cell Proliferation: Cells were seeded into plates at a density of approx. 50% corresponding to 1×10^6 cells, in 10 ml of 10% FCS and after an over night incubation the cells were treated with LCL compounds at concentration 0-20 μM in ethanol (ethanol level was kept below 0.1%) and the changes in cell numbers after 48 h were determined and expressed as a percentage of the untreated controls.
Briefly, media was removed, cells were washed twice with PBS, detached using 1% Trypsin and centrifuged at 800 rpm. Cell pellets were resuspended in PBS and Trypan blue (Sigma Chemicals, St. Louis, Mo., USA) was added (1:1 dilution). Under light microscope, the percentage of unstained and stained cells was assessed.
To examine the anticancer activity of CCPS analogs of the invention, their inhibitory effect on MCF7 breast carcinoma cells were analyzed and compared to the activity of D-e-C6-ceramide, which is commonly used as a model of action for ceramides. Cell proliferation and cell viability were determined by Trypan blue exclusion assay.

[3] = Solubility of ceramides and ceramidoids in water
MCF7 cells = conditions: 5 μM
Method: FIGS. 4A-4C show the cellular levels of CCPS analogs. MCF 7 cells were treated with 5 μM concentration of CCPS analogs over the time and cellular level of the nonmetabolized CCPSs was measured by MS methodology as shown under Experimental. Results are expressed as % of concentration applied.
A parallel set of cells was used to determine cell proliferation and to prepare lipid extracts for MS analysis.
Briefly, for the indicated points, media was removed, cells were washed twice with PBS, scraped into cold PBS (2×1.0 ml), transferred to glass vials and centrifuged for 5 min at 800 rpm. Cell pellets corresponding to ˜1×10^6 cells, were fortified with the internal standards IS (C17 base D-erythro-sphingosine: 17Sph, C17 sphingosine-1-phosphate: 17Sph-1P, N-palmitoyl-D-erythro-C13 sphingosine: 13CC16-Cer and N-heptadecanoyl-D-erythro-C17shingosine: 17CC17-Cer) and extracted (2×2 ml) into a one-phase solvent system with ethyl acetate/iso-propanol/water (60/30/10 v/v). One ml of this extract was used for Pi determination after lipid re-extraction by the Bligh and Dyer method. Remaining lipid extract was evaporated, reconstituted in 100 μl of methanol, and samples were injected on the Surveyor/TSQ 7000 LC/MS system and gradient eluted from the BDS Hypersil C8, 150×3.2 mm, 3 μm particle size column, with 1.0 mM methanolic ammonium formate/2 mM aqueous ammonium formate mobile phase system. Peaks corresponding to the target analytes and IS were collected and processed using the Xcalibur software system.
Cellular level of CCPS analogs was established by MS methodology.

[4] = tested on: isolated rat liver mitochondria; assay: Accumulation / binding in isolated mitochondria; conditions: at 4 min
Method: FIG. 16. […] Bar 2 and 4 (+FCCP), ΔΨ was dissipated by addition of FCCP at 1 μM plus antimycin A at 0.5 μg/mg protein from the beginning of the experiment. Results are expressed as mean+SEM of n=3, *p=0.01 versus control.
FIG. 23. […] Trace 3 was corrected for the absorbance of TMRM.
Preparation of mitochondria from rat liver.
Mitochondrial incubation medium.
Analysis of ceramides by mass spectroscopy (MS).

[5] = tested on: isolated rat liver mitochondria; assay: Mitochondrial permeabilization (ΔΨ, large-amplitude swelling); conditions: for mitochondrial large-amplitude swelling (in words): 60 μM
Method: Effects of ceramides on ΔΨ value (17A) and mitochondrial large-amplitude swelling (17B, 17C) Mitochondria were incubated at the condition described under Section 9.1 except that 2 μM of TPP+ was present from the beginning of the experiment. Alamethicin (ALA), a pore-forming peptide (7 μg/mg protein), was added as indicated to induce permeabilization and determine the full extend of potential changes in the parameters of interest. Where indicated ceramides at 40 μM were present from the beginning of the experiment. FIGS. 17A and 17B show time-courses of ceramides effect on ΔΨ and mitochondrial swelling. […] Degree of mitochondrial swelling was determined 30 min after ceramide treatment.
Mitochondria were incubated at the condition described under Section 9.1 except that 2 μM of TPP+ was present from the beginning of the experiment. Trace 2, no addition. […] Trace 4, FCCP at 1 μM was present from the beginning of the experiment. […] Alamethicin (ALA), a pore-forming peptide (7 μg/mg protein), was added as indicated to induce permeabilization and determine the full extent of potential changes in the parameters of interest.
Mitochondria were incubated at the condition described under “Experimental procedures”. […] Trace 2, DCCD at 100 μM was added from the beginning of the experiment. Alamethicin (ALA) was added as indicated to determine full degree of permeabilization. […] The curve was generated from experiments similar to that depicted in traces 1 and 2 with indicated concentration of DCCD present from the beginning of the experiment.
Effect of hydrophobic cations on the time-course of mitochondrial large-amplitude swelling. Alamethicin (ALA), a pore-forming peptide (7 μg/mg protein), was added as indicated to induce permeabilization and determine the full extent of mitochondrial swelling. Where indicated cations at 60 μM were added to the incubation medium. Trace 1, no additions; trace 2, C2 pyridinium ceramide; trace 3, TMRM; trace 4, cetyl pyridinium; trace 5, TPP^+. Trace 3 was corrected for the absorbance of TMRM.
Time-course (A) and dose-response (B) of the effect of C6 pyridinium dihydroceramide on mitochondrial large-amplitude swelling. Mitochondria were incubated at the condition described under “Experimental procedures”. Alamethicin (ALA), a pore-forming peptide (7 μg/mg protein), was added as indicated to induce permeabilization and determine the full extent of mitochondrial swelling. Where indicated ceramides at 30 μM were added to the incubation medium. […] Trace 1, no additions; trace 2, C6 pyridinium ceramide; trace 3, C6 pyridinium dihydroceramide. […] Degree of mitochondrial swelling was determined 15 min after ceramide treatment. Trace 1, C6 pyridinium dihydroceramide; trace 2, C6 pyridinium ceramide.

[6] = aqueous conditions at pH 4.5, 7.5 and 8.5 over 48 hrs
[7] = Homo sapiens, read-out: IC50 of chemotherapeutic agents
[8] = UM-SCC-22A, 48 hr, read-out: IC50, cell growth
[9] = UM-SCC-22A, 96 hr, DMEM, read-out: IC50, cell growth
[10] = Homo sapiens, UM-SCC-22A, MTT, read-out: IC50 of chemotherapeutic agents

For `O=c1[nH]cc(F)c(=O)[nH]1` [5-FU, 5-fluorouracil, reference compound], the IC50 (UM-SCC-22A cells; [7]) is given as 1 to 100 µM and the “MTD of reference drugs (known)” value [1] is given as 25 mg/kg.
In the case of `CCCCCCCCCCCCC/C=C/[C@@H](O)[C@H](CO)NC(C)=O` [C2-Cer, D-erythro-C2-ceramide, reference compound], the “inhibitory effect on MCF7 cell growth (in words)” value (from here on “inhibitory effect”) ([2]; 48 h) is reported as “inactive”, the “Solubility at 37° C.” value [3] is reported as 0.01 mg/mL (≈ 29.3 µM) and the “Solubility at 37° C. ([mM])” value [3] is reported as “(0.029) mM”.
In the case of `CCCCCCCCCCCCC/C=C/[C@@H](O)[C@H](CO)NC(=O)CCCCCCCCCCCCCCC` [C16-Cer, D-erythro-C16-ceramide, reference compound], the “Solubility at 37° C.” value [3] is reported as 0.0003 mg/mL (≈ 0.558 µM) and the “Solubility at 37° C. ([mM])” value [3] is reported as “(0.0005) mM”.
In the case of `N.N.[Cl][Pt][Cl]` [CSP, cisplatinum], the “MTD of reference drugs (known)” value [1] is given as 9 mg/kg.
With `COc1cccc2c1C(=O)c1c(O)c3c(c(O)c1C2=O)C[C@@](O)(C(C)=O)C[C@@H]3O[C@H]1C[C@H](N)[C@H](O)[C@H](C)O1` [DNR, daunorubicin, reference compound] the IC50 (UM-SCC-22A cells; [7]) was 0.1 to 0.25 µM.
For `COc1cccc2c1C(=O)c1c(O)c3c(c(O)c1C2=O)C[C@@](O)(C(=O)CO)C[C@@H]3O[C@H]1C[C@H](N)[C@H](O)[C@H](C)O1` [DOX, doxorubicin], the IC50 (UM-SCC-22A cells; [7]) is given as 0.1 to 0.25 µM and the “MTD of reference drugs (known)” value [1] is given as 1 to 2 mg/kg and 2 mg/kg.
For `CCCCCCCCCCCCC/C=C/[C@H](O)[C@H](CO)NC(=O)CCCCCCCCCCCCCCC[n+]1ccccc1.[Br-]` [LCL87, L-threo-2-N-[16′-(1″-Pyridinium)-hexadecanoyl]-sphingosine Bromide], the “inhibitory effect” value ([2]; 48 h) was “similar, concentration dependent (1.0-10.0 μM) inhibitory effect on cell growth”, the IC50 (UM-SCC-22A cells; [8]) was about 1 µM and the IC50 (UM-SCC-22A cells; [9]) was about 0.3 µM.
`CCCCCCCCCCCCCC=CC(O)C(CO)NC(=O)CCCCCCCCCCC[n+]1ccccc1` (stereo not shown) [LCL89] showed an IC50 (UM-SCC-22A cells; [8]) of about 1 µM and an IC50 (UM-SCC-22A cells; [9]) of about 0.3 µM.
For `CCCCCCCCCCCCCCC[C@@H](O)[C@H](CO)NC(=O)CCCCC[n+]1ccccc1.[Br-]` [LCL143, D-erythro-2-N-[6′-(1″-Pyridinium)-hexanoyl]-4,5-dihydrosphingosine Bromide], the “Intracellular level, % of concentration applied” value (MCF7 cells; 1 h) was 15%, the “Cellular level, % of concentration applied” value (MCF7 cells; 5 h) was 13% and the “Cellular level, % of concentration applied” value (MCF7 cells; 24 h) was 35%. The IC50 [2] was 5 µM and 5.02 µM, the binding to mitochondria ([4]; 30 μM) was 9.8±0.7 nmol/mg protein and the “lag period of the induction of mitochondrial swelling versus C6-pyridinium-ceramide” value ([5]; 30 μM) was “three fold increase in the lag period”.
With `CCCCCCCCCCCCC/C=C/[C@@H](O)[C@H](CO)NC(=O)C[n+]1ccccc1.[Br-]` [LCL150, D-erythro-2-N-[2′-(1″-Pyridinium)-acetyl]-sphingosine Bromide] the “Cellular level, % of concentration applied” value (MCF7 cells; 5 h) was about 17%, the “Cellular level, % of concentration applied” value (MCF7 cells; 24 h) was 50% and the IC50 [2] was 8 µM. The “effect on cell growth (in words)” value (UM-SCC-22A cells; UM-SCC-22A, 96 hr) was “did not exert a significant effect on cell growth”, the binding to mitochondria ([4]; 60 μM) was 29.8 nmol/mg protein and the “Stability (decomposition) by MS” value [6] was “no evidence of their decomposition”. The “effect on ΔΨ and mitochondrial swelling (in words)” value ([5]; 40 μM) was “only minor changes in the magnitude of mitochondrial swelling and the value of ΔΨ” and the “mitochondrial large-amplitude swelling (in words)” value [5] was “failed to induce the same degree of swelling”.
`CCCCCCCCCCCCC/C=C/[C@@H](O)[C@H](CO)NC(=O)CCCCC[n+]1ccc(C=Cc2ccc(N(C)C)cc2)cc1` [LCL186, D-erythro-2-N-[6′-[1″-[4′″-[(4″″-N,N-Dimethylamino)styryl]-pyridinium]-hexanoyl]]-sphingosine Bromide] gave an IC50 [2] of about 4 µM.
With `CCCCCCCCCCCCC/C=C/[C@@H](O)[C@H](CO)NC(=O)c1ccc[n+](CCCCCCCC)c1.[Br-]` [LCL275, D-erythro-2-(1′-Octylnicotinoyl)-sphingosine Bromide] the IC50 ([2]; listed as LCL-275) was 15 µM, the IC50 [2] was about 20 µM and the “Solubility at 22° C.” value [3] was 62 mg/mL. For the same compound, the “Solubility at 22° C. ([mM])” value [3] was “(103) mM”, the “Solubility at 37° C.” value [3] was 120 mg/mL and the “Solubility at 37° C. ([mM])” value [3] was “(200) mM”.
In the case of `CCCCCCCCCCCCC/C=C/[C@@H](O)[C@H](CO)NC(=O)CCc1ccc[n+](CCCC)c1` [LCL277, D-erythro-2-N-[3′-[3″-(1″-Butyl)-pyridinium]-propionoyl]-sphingosine Bromide], the IC50 ([2]; listed as LCL-277) is reported as 13 µM and the IC50 [2] is reported as 8.5 µM.
For `CCCCCCCCCCCCCCC[C@@H](O)[C@H](CO)NC(=O)C[n+]1ccccc1.[Br-]` [LCL319, D-erythro-2-N-[2′-(1″-Pyridinium)-acetyl]-4,5-dihydrosphingosine Bromide], the “Cellular level, % of concentration applied” value (MCF7 cells; 5 h) was 27%, the “Cellular level, % of concentration applied” value (MCF7 cells; 24 h) was 52% and the “inhibition of MCF7 cell growth” value ([2]; 10 μM, 48 h) was 15%. The IC50 [2] was 12.5 µM, the “Solubility at 22° C.” value [3] was 0.9 mg/mL and the “Solubility at 22° C. ([mM])” value [3] was “(1.8) mM”. For the same compound, the “Solubility at 37° C.” value [3] was 45 mg/mL and the “Solubility at 37° C. ([mM])” value [3] was “(90) mM”.
With `CN(Cc1cnc2nc(N)nc(N)c2n1)c1ccc(C(=O)N[C@@H](CCC(=O)O)C(=O)O)cc1` [MTX, methotrexate, reference compound] the IC50 (UM-SCC-22A cells; [10]) was 0.1 to 0.25 µM.
`CC(=O)O[C@H]1C(=O)[C@@]2(C)[C@H]([C@H](OC(=O)c3ccccc3)[C@]3(O)C[C@H](OC(=O)[C@H](O)[C@@H](NC(=O)c4ccccc4)c4ccccc4)C(C)=C1C3(C)C)[C@]1(OC(C)=O)CO[C@@H]1C[C@@H]2O` [PAX, paclitaxel, reference compound] showed an IC50 (UM-SCC-22A cells; [10]) of 1 to 100 µM.
In the case of `COC(=O)c1ccccc1-c1c2ccc(=[N+](C)C)cc-2oc2cc(N(C)C)ccc12` [TMRM, reference compound], the binding to mitochondria ([4]; 60 μM) is reported as 50±2.6 nmol/mg protein and the “mitochondrial large-amplitude swelling (in words)” value [5] is reported as “fail to induce large-amplitude swelling”.
In the case of `c1ccc([P+](c2ccccc2)(c2ccccc2)c2ccccc2)cc1` [TPP^+, reference compound], the “mitochondrial large-amplitude swelling (in words)” value [5] is reported as “fail to induce large-amplitude swelling”.
In the case of `CCCCCCCCCCCCCCCC[n+]1ccccc1` [cetylpyridinium bromide, Cetylpyridinium bromide (CPB) monohydrate, reference compound], the “mitochondrial large-amplitude swelling (in words)” value [5] is reported as “only moderate mitochondrial swelling”.
With “D-threo-2-N-[6′-(1″-Pyridinium)-hexanoyl]-sphingosine Bromide [LCL272]” the “inhibitory effect” value ([2]; 48 h) was “caused inhibitory effect on MCF7 cell growth”.
For “L-erythro-2-N-[6′-(1″-Pyridinium)-hexanoyl]-sphingosine Bromide [LCL187]”, the “inhibitory effect” value ([2]; 48 h) was “caused inhibitory effect on MCF7 cell growth”.
